Columns and labels:
CDK2 [1] = target: CDK2 (UniProt P24941); experiment: Enzyme Assay
MAPK14 (human) = MAPK14 (human) (UniProt Q16539); experiment: Inhibition of MAPK14 Kinase Activity; details: for inhibition: concentration not given here
CDK2 [2] = target: CDK2 (UniProt P24941); experiment: Enzyme Assay; details: for inhibition: concentration not given here
ROCK2 (rat) = ROCK2 (rat) (UniProt Q62868); experiment: Inhibition of ROCK2 Kinase Activity; details: concentration not given here
ROCK2 (rat), sequence (Q62868 whole entry, looked up): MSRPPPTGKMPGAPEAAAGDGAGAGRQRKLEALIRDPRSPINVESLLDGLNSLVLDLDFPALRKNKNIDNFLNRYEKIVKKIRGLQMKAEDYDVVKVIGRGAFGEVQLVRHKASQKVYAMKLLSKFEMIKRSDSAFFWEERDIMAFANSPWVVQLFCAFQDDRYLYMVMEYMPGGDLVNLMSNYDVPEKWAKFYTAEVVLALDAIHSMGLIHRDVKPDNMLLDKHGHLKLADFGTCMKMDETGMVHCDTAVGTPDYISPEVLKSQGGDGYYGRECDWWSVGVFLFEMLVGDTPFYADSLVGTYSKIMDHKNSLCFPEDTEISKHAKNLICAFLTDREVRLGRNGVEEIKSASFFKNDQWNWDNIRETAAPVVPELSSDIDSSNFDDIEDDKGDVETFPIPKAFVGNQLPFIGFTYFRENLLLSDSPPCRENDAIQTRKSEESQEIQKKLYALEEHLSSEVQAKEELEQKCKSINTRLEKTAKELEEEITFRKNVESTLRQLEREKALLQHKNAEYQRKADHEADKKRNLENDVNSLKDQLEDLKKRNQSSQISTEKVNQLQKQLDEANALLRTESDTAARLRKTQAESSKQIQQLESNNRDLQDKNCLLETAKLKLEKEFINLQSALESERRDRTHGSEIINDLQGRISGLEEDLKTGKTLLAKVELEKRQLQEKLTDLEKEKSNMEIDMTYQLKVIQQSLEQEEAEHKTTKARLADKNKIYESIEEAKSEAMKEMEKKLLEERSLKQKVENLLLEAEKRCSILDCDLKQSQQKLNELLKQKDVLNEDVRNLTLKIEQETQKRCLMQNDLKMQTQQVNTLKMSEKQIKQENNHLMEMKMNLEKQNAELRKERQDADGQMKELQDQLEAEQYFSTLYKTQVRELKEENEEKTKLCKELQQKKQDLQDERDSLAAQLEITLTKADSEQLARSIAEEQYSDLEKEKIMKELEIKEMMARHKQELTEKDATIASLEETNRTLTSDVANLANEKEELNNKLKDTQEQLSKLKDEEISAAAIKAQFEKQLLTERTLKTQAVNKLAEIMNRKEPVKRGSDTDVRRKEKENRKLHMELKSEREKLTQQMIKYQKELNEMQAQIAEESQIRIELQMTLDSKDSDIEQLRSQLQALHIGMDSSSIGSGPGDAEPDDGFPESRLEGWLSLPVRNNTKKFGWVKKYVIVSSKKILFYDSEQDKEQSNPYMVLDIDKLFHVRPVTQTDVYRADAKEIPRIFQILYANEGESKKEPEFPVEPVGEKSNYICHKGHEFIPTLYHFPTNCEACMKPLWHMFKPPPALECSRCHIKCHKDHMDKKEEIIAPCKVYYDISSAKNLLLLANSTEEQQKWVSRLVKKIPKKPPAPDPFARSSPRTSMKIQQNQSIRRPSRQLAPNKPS

MAPK14 (human), sequence (Q16539 whole entry, looked up): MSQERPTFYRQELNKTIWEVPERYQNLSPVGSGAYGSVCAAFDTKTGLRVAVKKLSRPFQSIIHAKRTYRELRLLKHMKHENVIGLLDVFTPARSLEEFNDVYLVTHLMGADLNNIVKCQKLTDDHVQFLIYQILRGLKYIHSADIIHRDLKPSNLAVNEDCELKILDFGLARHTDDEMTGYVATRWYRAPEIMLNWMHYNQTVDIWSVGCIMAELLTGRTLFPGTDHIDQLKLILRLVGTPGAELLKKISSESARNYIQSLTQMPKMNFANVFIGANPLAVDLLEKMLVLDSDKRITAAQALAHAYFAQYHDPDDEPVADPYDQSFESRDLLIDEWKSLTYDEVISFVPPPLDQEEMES

Row | IC50 (CDK2 [1]) [nM] | SMILES | other results
1 | 60 | CNc1nc(C)c(-c2ccnc(Nc3cccc(S(=O)(=O)NC)c3)n2)s1 | –
2 | 2 | CNc1nc(C)c(-c2ccnc(Nc3ccc(S(C)(=O)=O)cc3)n2)s1 | –
3 | 12 | Cc1nc(N)sc1-c1ccnc(Nc2ccc(S(=O)(=O)NCc3ccccc3)cc2)n1 | –
4 | 3 | CNc1nc(C)c(-c2ccnc(Nc3ccc(S(=O)(=O)NCCOC)cc3)n2)s1 | –
5 | 60 | CCNS(=O)(=O)c1ccc(Nc2nccc(-c3sc(C)nc3C)n2)cc1 | –
6 | 320 | CNc1nc(C)c(-c2ccnc(Nc3cccc(S(=O)(=O)NCCO)c3)n2)s1 | –
7 | 6 | CNc1nc(C)c(-c2ccnc(Nc3ccc(S(=O)(=O)NCCO)cc3)n2)s1 | –

Continued, compound first:

Row | SMILES | IC50 (CDK2 [1]) [nM] | other results
8 | Cc1ccc(Nc2nccc(-c3sc(N)nc3C)n2)cc1S(=O)(=O)N1CCOCC1 | – | IC50 (MAPK14 (human)): > 10000 nM
9 | Cc1nc(C)c(-c2ccnc(Nc3cccc(S(C)(=O)=O)c3)n2)s1 | 320 | –
10 | COc1cc(Nc2nccc(-c3sc(CO)nc3C)n2)ccc1N1CCOCC1 | 2510 | –
11 | CNc1nc(C)c(-c2ccnc(Nc3ccc(C)c(Br)c3)n2)s1 | 320 | –
12 | CCNc1nc(C)c(-c2ccnc(Nc3cccc(S(=O)(=O)NCC)c3)n2)s1 | 320 | –
13 | CCNc1nc(C)c(-c2ccnc(Nc3ccc(S(=O)(=O)NCCOC)cc3)n2)s1 | – | IC50 (CDK2 [2]): 12 nM
14 | CNc1nc(C)c(-c2ccnc(Nc3ccc(C)c(S(=O)(=O)N4CCOCC4)c3)n2)s1 | 3200 | IC50 (MAPK14 (human)): > 10000 nM
15 | CCNc1nc(C)c(-c2ccnc(Nc3ccc(CNC(C)=O)cc3)n2)s1 | – | IC50 (CDK2 [2]): 120 nM
16 | CNc1nc(C)c(-c2ccnc(Nc3cc(OC)cc(OC)c3)n2)s1 | 320 | –
17 | CNc1nc(C)c(-c2ccnc(Nc3cccc(S(=O)(=O)NC(C)=O)c3)n2)s1 | – | IC50 (CDK2 [2]): 3200 nM
18 | CCOC(=O)Cc1cccc(NS(=O)(=O)c2ccc(Nc3nccc(-c4sc(NC)nc4C)n3)cc2)c1 | – | IC50 (CDK2 [2]): 3200 nM
19 | Cc1nc(N)sc1-c1ccnc(Nc2cccc(CNS(=O)(=O)C(F)(F)F)c2)n1 | 60 | –
20 | Cc1nc(CS(=O)(=O)c2cccs2)sc1-c1ccnc(Nc2ccc(N3CCOCC3)cc2)n1 | – | inhibition (MAPK14 (human)): 67%; inhibition (ROCK2 (rat)): 86%; inhibition (CDK2 [2]): 91%
21 | Cc1nc(N)sc1-c1ccnc(Nc2cccc(S(=O)(=O)NCCO)c2)n1 | 120 | –
22 | CCNc1nc(C)c(-c2ccnc(Nc3ccc(S(=O)(=O)NCc4ccccc4)cc3)n2)s1 | – | IC50 (CDK2 [2]): 3200 nM
23 | Cc1nc(C)c(-c2ccnc(Nc3cccc(S(=O)(=O)NCCO)c3)n2)s1 | 320 | –
24 | CNc1nc(C)c(-c2ccnc(Nc3ccc(S(N)(=O)=O)cc3)n2)s1 | – | IC50 (MAPK14 (human)): > 10000 nM
25 | COCCNS(=O)(=O)c1cccc(Nc2nccc(-c3sc(N)nc3C)n2)c1 | 260 | IC50 (MAPK14 (human)): > 10000 nM
26 | CCNc1nc(C)c(-c2ccnc(Nc3ccc(N4CCNCC4)cc3)n2)s1 | 251 | inhibition (MAPK14 (human)): 61%; inhibition (ROCK2 (rat)): 95%; IC50 (CDK2 [2]): 50 nM; inhibition (CDK2 [2]): 99%
27 | CNc1nc(C)c(-c2ccnc(Nc3cccc(S(C)(=O)=O)c3)n2)s1 | – | IC50 (MAPK14 (human)): > 10000 nM; IC50 (CDK2 [2]): 6 nM
28 | Cc1nc(N(C)c2cccnc2)sc1-c1ccnc(Nc2ccc(N3CCOCC3)cc2)n1 | 3200 | –
29 | Cc1nc(N)sc1-c1ccnc(Nc2cccc(S(=O)(=O)N3CCOCC3)c2)n1 | 3200 | –
30 | CNc1nc(C)c(-c2ccnc(Nc3ccc(OC)c(C)c3)n2)s1 | 120 | –
31 | COCCOC(=O)COc1cccc(Nc2nccc(-c3sc(N)nc3C)n2)c1 | 1000 | –
32 | Cc1nc(NC(C)(C)C)sc1-c1ccnc(Nc2ccc(N3CCOCC3)cc2)n1 | 120 | –
33 | CCNc1nc(C)c(-c2ccnc(Nc3ccc(S(N)(=O)=O)cc3)n2)s1 | – | IC50 (CDK2 [2]): 6 nM
34 | Cc1nc(C)c(-c2ccnc(Nc3cccc(N4CCOCC4)c3)n2)s1 | 320 | –
35 | CCNc1nc(C)c(-c2ccnc(Nc3cccc(CC(=O)OCCOC)c3)n2)s1 | – | IC50 (CDK2 [2]): 3200 nM
36 | CCNc1nc(C)c(-c2ccnc(Nc3ccc(N4CCN(Cc5ccccc5)CC4)cc3)n2)s1 | – | IC50 (CDK2 [2]): 3200 nM
